# Source: paper PMC10567917 (Archives of Toxicology, 2023)
# “And” between values parts separate entries of the source, which are not always exact repeats. Identical values can stand only once.
# How the values were obtained:
# [1] = system: primary human hepatocytes; format: in vitro ADME
# [2] = system: primary rat hepatocytes
# [3] = system: primary mouse hepatocytes
# [4] = system: primary human hepatocytes
# [5] = system: intracellular proteins of primary human hepatocytes
# [6] = system: rainbow trout; conditions: in vivo; cited from earlier work
structure (smiles),measurement,setting,value
"COc1cc2c(c3oc(=O)c4c(c13)CCC4=O)[C@@H]1C=CO[C@@H]1O2 [AFB1, Aflatoxin B1]",estimated intracellular concentration of AFB1,[1],1 mM
same,AFB1 remaining in culture medium,[2],3.48 µM
same,AFB1 in culture medium,[3],no longer detectable
same,AFB1 remaining in culture medium,[3],0.2 µM
same,time up to which AFB1 was detectable in culture medium,[3],up to 6 h
same,AFB1 remaining in culture medium,[4],8.54 µM
same,concentration in culture medium,[4],636 nM
"COc1cc2c(c3oc(=O)c4c(c13)CCC4=O)[C@H]1[C@@H](O2)OC(SCC(NC(=O)CCC(N)C(=O)O)C(=O)NCC(=O)O)[C@@H]1O (stereo partly shown) [AFB1-GSH, AFB1-glutathione]",intracellular detection,[1],not detected
same,concentration in culture medium,[2],72 nM
same,concentration in culture medium (plateau),[2],415 nM
same,detection in culture medium,[4],not detected
"COc1cc(O)c(C2=CC(=O)N(CCCC[C@H](N)C(=O)O)C2)c2oc(=O)c3c(c12)CCC3=O [AFB1-Lys, AFB1-lysine]",AFB1-Lys in proteins of cell lysate,[5],around 1.0 pmol
same,detection in culture medium,[2],detected only in trace amounts
"COc1cc2c(c3oc(=O)c4c(c13)CCC4=O)[C@H]1[C@@H](O2)OC(SCC(NC(C)=O)C(=O)O)[C@@H]1O (stereo partly shown) [AFB1-NAC, AFB1-N-acetylcysteine]",detection in culture medium,[4],not detected
"COc1cc2c(c3oc(=O)c4c(c13)CCC4=O)C1(O)C=COC1O2 (stereo not shown) [AFM1, aflatoxin M1]",maximum concentration in culture medium,[3],353 nM
same,concentration in culture medium,[4],33 nM and 46 nM
"O=C1CCc2c1c(=O)oc1c3c(cc(O)c21)O[C@H]1OC=C[C@@H]31 [AFP1, aflatoxin P1]",detection in culture medium,[2],detected only in trace amounts
same,maximum concentration in culture medium,[3],896 nM
same,detection in culture medium,[4],just formed in trace amounts
"O=C1CCc2c1c(=O)oc1c3c(cc(O[C@@H]4O[C@H](C(=O)O)[C@@H](O)[C@H](O)[C@H]4O)c21)O[C@H]1OC=C[C@@H]31 [AFP1-Glc, AFP1 glucuronide]",AFP1-Glc level in mouse samples relative to rat samples,[3],about 100 fold
same,detection of AFP1-Glc,[4],no AFP1-Glc was detectable
"COc1cc2c(c3oc(=O)c4c(c13)[C@@H](O)CC4=O)[C@@H]1C=CO[C@@H]1O2 [AFQ1, aflatoxin Q1]",Formation rate,[2],87 pmol/h and 74 700 pmol/h
same,concentration in culture medium,[2],112 nM
same,maximum concentration in culture medium,[3],25 nM
same,carcinogenic potency relative to AFB1,[6],about 1%
